From US20260258004A1, “CRYSTALLINE FORMS OF (6S)-5-[4'-FLUORO-2-(TRIFLUOROMETHYL)BIPHENYL-4-YL]-6-METHYL-3,6- DIHYDRO-2H-l,3,4-OXADIAZIN-2-ONE” (Bayer Aktiengesellschaft, priority 2022, published 2026)

What was measured:
[1] = Particle size distribution by laser diffraction (Malvern Panalytical Mastersizer 3000, Fraunhofer); assay type: physicochemical
Method: The particle size distribution was measured by laser diffraction using the Malvern Panalytical Mastersizer 3000.
The samples are again taken from example 1.6 (probe 1) and example 1.5 (probe 2), the same as used in example 4.
The sample to be analyzed is dispersed in 1 drop of Tween 80 the sample is processed according to ISO13320.
Laser diffraction is an often-used method for determination the particle size of dispersed solid materials. A widened laser beam illuminates a cuvette which contains part of the particles. By diffraction on the particles a characteristic pattern can be mapped on the detector. The resulting diffraction image is the additive overlaying of diffraction images of all particles.
Besides the mentioned detector two additional detectors are mounted in order to detect diffraction light in forward direction (FA1,9), in wide angle (LA1,2) and in back direction (BS1,2). The turbidity of the sample is measured by an extinction sensor. This is necessary to ensure a low particle concentration which is necessary to avoid wrong results by multiple diffraction of light at several particles.
The cuvette used was a wet unit where the suspension is pumped in a closed circuit with a dispersing unit that ensures a separation of single particles by shear forces.
The measurement range of the Malvern 3000 covers a particle size from 1 mm (2 mm) down to 20 nm
The calculation of the particle size distribution from the diffraction patterns was done on basis of theory of Fraunhofer.
This assumption is valid for particle sizes of 10 to 50 μm and above. For smaller particles the light scattering of the particle itself due to optical transparency must be considered which is done in the Mie-theory (not used for our probes). Precondition of the application of the Mie-theory is the knowledge of the refractive and absorption index of the dispersed solids.
Q3 is the cumulative volume distribution, e.g. D50=Q(50%) indicates 50% of the volume part of the sample is smaller than particle size of 50 μm.
The particle size is expressed as an equivalent diameter used in the method recommended by the Malvern Analysis Program and as described in ISO13320.

[2] = Thermodynamic stability of the polymorphic forms; assay type: physicochemical; details: between 0° C. and 80° C.
[3] = without ultrasound (US), listed as Probe 2

## C[C@@H]1OC(=O)NN=C1c1ccc(-c2ccc(F)cc2)c(C(F)(F)F)c1 [polymorph C, (6S)-5-[4′-Fluoro-2-(trifluoromethyl)biphenyl-4-yl]-6-methyl-3,6-dihydro-2H-1,3,4-oxadiazin-2-one]
[1]
  difference between Q3[50] of untreated sample and sample treated 300 s with ultrasound: significantly smaller
[1]; 300 s US, listed as Probe2
  D(10): 14.5 μm
  D(50): 57.3 μm
  D(90): 170 μm
[1]; particle size D 0.01 μm, 300 s US
  Cumulative volume distribution Q: 0%
[1]; particle size D 0.01 μm, without US
  Cumulative volume distribution Q: 0%
[1]; particle size D 0.0114 μm, 300 s US
  Cumulative volume distribution Q: 0%
[1]; particle size D 0.0114 μm, without US
  Cumulative volume distribution Q: 0%
[1]; particle size D 0.0129 μm, 300 s US
  Cumulative volume distribution Q: 0%
[1]; particle size D 0.0129 μm, without US
  Cumulative volume distribution Q: 0%
[1]; particle size D 0.0147 μm, 300 s US
  Cumulative volume distribution Q: 0%
[1]; particle size D 0.0147 μm, without US
  Cumulative volume distribution Q: 0%
[1]; particle size D 0.0167 μm, 300 s US
  Cumulative volume distribution Q: 0%
[1]; particle size D 0.0167 μm, without US
  Cumulative volume distribution Q: 0%
[1]; particle size D 0.0189 μm, 300 s US
  Cumulative volume distribution Q: 0%
[1]; particle size D 0.0189 μm, without US
  Cumulative volume distribution Q: 0%
[1]; particle size D 0.0215 μm, 300 s US
  Cumulative volume distribution Q: 0%
[1]; particle size D 0.0215 μm, without US
  Cumulative volume distribution Q: 0%
[1]; particle size D 0.0244 μm, 300 s US
  Cumulative volume distribution Q: 0%
[1]; particle size D 0.0244 μm, without US
  Cumulative volume distribution Q: 0%
[1]; particle size D 0.0278 μm, 300 s US
  Cumulative volume distribution Q: 0%
[1]; particle size D 0.0278 μm, without US
  Cumulative volume distribution Q: 0%
[1]; particle size D 0.0315 μm, 300 s US
  Cumulative volume distribution Q: 0%
[1]; particle size D 0.0315 μm, without US
  Cumulative volume distribution Q: 0%
[1]; particle size D 0.0358 μm, 300 s US
  Cumulative volume distribution Q: 0%
[1]; particle size D 0.0358 μm, without US
  Cumulative volume distribution Q: 0%
[1]; particle size D 0.0407 μm, 300 s US
  Cumulative volume distribution Q: 0%
[1]; particle size D 0.0407 μm, without US
  Cumulative volume distribution Q: 0%
[1]; particle size D 756 μm, 300 s US
  Cumulative volume distribution Q: 100%
[1]; particle size D 756 μm, without US, listed as Probe 2
  Cumulative volume distribution Q: 99.65%
[1]; particle size D 859 μm, 300 s US
  Cumulative volume distribution Q: 100%
[1]; particle size D 859 μm, without US, listed as Probe 2
  Cumulative volume distribution Q: 99.9%
[1]; particle size D 976 μm, 300 s US
  Cumulative volume distribution Q: 100%
[1]; particle size D 976 μm, without US, listed as Probe 2
  Cumulative volume distribution Q: 100%
[1]; particle size D 1110 μm, 300 s US
  Cumulative volume distribution Q: 100%
[1]; particle size D 1110 μm, without US
  Cumulative volume distribution Q: 100%
[1]; particle size D 1260 μm, 300 s US
  Cumulative volume distribution Q: 100%
[1]; particle size D 1260 μm, without US
  Cumulative volume distribution Q: 100%
[1]; particle size D 1430 μm, 300 s US
  Cumulative volume distribution Q: 100%
[1]; particle size D 1430 μm, without US
  Cumulative volume distribution Q: 100%
[1]; particle size D 1630 μm, 300 s US
  Cumulative volume distribution Q: 100%
[1]; particle size D 1630 μm, without US
  Cumulative volume distribution Q: 100%
[1]; particle size D 1850 μm, 300 s US
  Cumulative volume distribution Q: 100%
[1]; particle size D 1850 μm, without US
  Cumulative volume distribution Q: 100%
[1]; particle size D 2100 μm, 300 s US
  Cumulative volume distribution Q: 100%
[1]; particle size D 2100 μm, without US
  Cumulative volume distribution Q: 100%
[1]; particle size D 2390 μm, 300 s US
  Cumulative volume distribution Q: 100%
[1]; particle size D 2390 μm, without US
  Cumulative volume distribution Q: 100%
[1]; particle size D 2710 μm, 300 s US
  Cumulative volume distribution Q: 100%
[1]; particle size D 2710 μm, without US
  Cumulative volume distribution Q: 100%
[1]; particle size D 3080 μm, 300 s US
  Cumulative volume distribution Q: 100%
[1]; particle size D 3080 μm, without US
  Cumulative volume distribution Q: 100%
[1]; particle size D 3500 μm, 300 s US
  Cumulative volume distribution Q: 100%
[1]; particle size D 3500 μm, without US
  Cumulative volume distribution Q: 100%
[1]; ultrasound treatment, compared to polymorph A
  robustness of crystals: more robust
[1]; [3]
  D(10): 69.1 μm
  D(50): 179 μm
  D(90): 380 μm
[2]
  thermodynamic stability: thermodynamically stable form
